Reference: patent US20230201153A1, “COMPOSITIONS AND METHODS FOR TREATMENT OF OBESITY” (EPITRACKER, INC., priority 2020, published 2023)
“Also recorded” adds a separate entry of the source.

Legend:
[1] = molecular target: T1, cannabinoid receptor 1 (CB1) (Homo sapiens, UniProt P21554); experiment: SAFETYscan E/IC50 ELECT functional assay, CB1 agonist activity; format: cell-based; conditions: at 20 μM; relative to positive control CP 55940 assigned 100%
T1 construct: purchased DiscoverX/Eurofins, Fremont, Calif
Excerpt: (§1) In order to evaluate potential pharmacologic targets of pentadecanoic acid, this study examined agonist and antagonist activities of synthetic pentadecanoic acid (Sigma-Aldrich Product W433400) across 78 assays using SAFETYscan E/IC50 ELECT (DiscoverX/Eurofins, Fremont, Calif.). Briefly, a variety of standardized and optimized functional assays were used, including G protein coupled receptors (ADORA2A, ADRA1A, ADRA2A, ADRB1, ADRB2, CB1, CB2, CCK1, D1, D2S, ETA, H1, H2, M1 M2, M3, OPRD1, OPRK1, OPRM1, 5HTR1A, 5HTR1B, 5HTR2A, 5HTR2B, AVPR1A), kinases (LCK, INSR, VEGFR2, ROCK1), transporters (DAT, NET, SERT), ion channels (GABAA, 5-HT3, CA1.2, HERG, KVLQT1/MINK, NA1.5, NMDAR1/2B, NACHR), nuclear receptors (AR, GR), and non-kinase enzymes (COX1, COX2, ACHE, MAOA, PDE3A, PDE4D2). Ten-point concentration curves for both agonist (EC50) and antagonist (IC50) activity were established for each target. Maximum activity (%) was also determined based on comparisons with internal positive controls, which were assigned 100% activity.

[2] = molecular target: T2, cannabinoid receptor 2 (CB2) (Homo sapiens, UniProt P34972); experiment: SAFETYscan E/IC50 ELECT functional assay, CB2 agonist activity; format: cell-based; conditions: at 20 μM; relative to positive control CP 55940 assigned 100%
T2 construct: purchased DiscoverX/Eurofins, Fremont, Calif
Excerpt: as §1

[3] = Body weight of mice fed a high-fat diet with daily oral supplementation; format: in vivo, male C57BL/6J mice; conditions: for Body weight / Body weight change (%): high fat diet, n = 10; for percent body weight gain / weight-lowering effect compared to non-supplemented controls: high fat diet mice, C15:0 5 mg/kg, C17:0 5 and 35 mg/kg daily oral
Excerpt: This study assessed the effects of daily oral C15:0 and C17:0 supplementation on the body weight of mice fed a high-fat diet compared to non-supplemented controls.
Forty 6-week old male C57BL/6J mice (Jackson Laboratories, Bar Harbor, Me.) were fed a high fat diet (HFD, 60% kilocalories fat, D12492 Research Diets Inc., New Brunswick, N.J.) for eight weeks. Animals were randomly assigned to one of the following four study groups (10 per group) on Day −1 based on body weight: Group 1 (HFD non-supplemented controls), Group 2 (daily oral 5 mg/kg heptadecanoic acid, C17:0), Group 3 (daily oral 35 mg/kg heptadecanoic acid, C17:0), and Group 4 (daily oral 5 mg/kg pentadecanoic acid, C15:0). Group sizes for this pilot study were based on numerous published studies initially evaluating the effects of other natural small molecules on similar metabolic indices in the same model. Animals were provided the vehicle (1×PBS) or test articles daily via gastric gavage for 12 weeks. Animals were fed the HFD throughout the study. The study was conducted by Charles River Laboratories (Shrewsbury, Mass.), where animals were housed singly in solid bottom polycarbonate cages with Beta-chip contact bedding and enviro-dri nesting material, with temperature and humidity ranges of 18° to 26° C. and 30 to 70%, respectively. A 12 hr light cycle was used, and water and food were provided ad libitum. Body weights and body weight changes were recorded weekly throughout the study. Due to low sample sizes and inability to assume normal distributions, Wilcoxon tests were used to compare body weight values between supplemented and non-supplemented controls; a two-sided P value ≤0.05 was defined as significant.

[4] = Voluntary customer surveys after daily oral C15:0 supplement (fatty15); format: in vivo, human
Experimental: An odd-chain saturated fatty acid dietary supplement, containing an encapsulated pure (>98%) free fatty acid C15:0 powder and called fatty15™, was launched as a consumer health product. Recommended dosing was a single, […] capsule taken orally once a day. Based on our studies with obese mice, we hypothesized that daily oral C15:0 supplementation would decrease snacking and/or improve body weight among customers.
6-Week Survey. Six weeks following receipt of the C15:0 supplement, customers were provided a voluntary electronic questionnaire to evaluate potential near-term benefits, including the question, ‘Overall how much would you agree with the following statement: Since starting fatty15, I feel less hungry between meals, snack less, and/or eat less during meals.’ Survey responders were asked to select a number between 1 and 10, in which 1=Strongly disagree and 10=Strongly agree. A response of 7 or greater was considered an agreement with the statement. Survey responders were also asked if fatty15™ had become a part of their daily health routine.
4-Month Survey. Approximately 4 months following receipt of the C15:0 supplement, customers were provided a second voluntary electronic questionnaire to evaluate potential longer-tem benefits, including the question, ‘Which of the following (if any) have you experienced since starting fatty15, even if this experience has been subtle?’ Two of the possible responses were ‘Healthier eating, including less snacking’ and ‘Healthier body weight’.

PPARα = molecular target: T3, PPARα (Homo sapiens, UniProt Q07869); experiment: PathHunter NHRscan CHO cell-based functional protein interaction assay, PPARα agonist; conditions: CHO cells, 10 concentrations up to 100 μM; for EC50: read-out: effective concentration needed to reach half-maximum PPARα activity
T3 construct: host or cells: Chinese hamster ovary (CHO)
T3 sequence (Q07869 1-468): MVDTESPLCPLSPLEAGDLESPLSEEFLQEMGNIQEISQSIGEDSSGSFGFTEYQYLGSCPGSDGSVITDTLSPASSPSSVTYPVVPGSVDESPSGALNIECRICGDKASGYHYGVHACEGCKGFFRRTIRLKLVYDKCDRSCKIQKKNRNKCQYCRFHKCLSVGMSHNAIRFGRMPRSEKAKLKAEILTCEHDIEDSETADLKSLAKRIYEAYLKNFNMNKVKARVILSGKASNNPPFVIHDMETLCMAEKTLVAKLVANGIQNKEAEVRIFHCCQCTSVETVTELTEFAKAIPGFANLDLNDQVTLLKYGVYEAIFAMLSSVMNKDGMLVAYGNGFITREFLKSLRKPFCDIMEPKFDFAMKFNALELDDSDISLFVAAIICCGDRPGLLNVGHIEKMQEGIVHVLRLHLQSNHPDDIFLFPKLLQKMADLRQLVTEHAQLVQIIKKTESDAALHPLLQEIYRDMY
Experimental: (§2) Chinese hamster ovary (CHO, cell line 93-0457C2) cell-based functional protein interaction assays for PPARα, δ, and γ that are part of the Eurofins/DiscoverX PathHunter NHRscan panel (Fremont, Calif.) were used to evaluate C15:0 and C17:0 PPARα, δ and γ agonist activities at 10 concentrations (up to 100 μM). Effective concentrations (EC:50) and maximum activities were determined in relation to positive controls (GW7647 for PPARα, L-165.041 for PPARδ, and troglitazone for PPARγ). Detailed methods used for these assays and assay readouts are available from Eurofins/DiscoverX.

PPARδ = molecular target: T4, PPARδ (Homo sapiens, UniProt Q03181); experiment: PathHunter NHRscan CHO cell-based functional protein interaction assay, PPARδ agonist; conditions: CHO cells, 10 concentrations up to 100 μM; for EC50: read-out: effective concentration needed to reach half-maximum PPARδ activity
T4 construct: host or cells: Chinese hamster ovary (CHO)
T4 sequence (Q03181 1-441): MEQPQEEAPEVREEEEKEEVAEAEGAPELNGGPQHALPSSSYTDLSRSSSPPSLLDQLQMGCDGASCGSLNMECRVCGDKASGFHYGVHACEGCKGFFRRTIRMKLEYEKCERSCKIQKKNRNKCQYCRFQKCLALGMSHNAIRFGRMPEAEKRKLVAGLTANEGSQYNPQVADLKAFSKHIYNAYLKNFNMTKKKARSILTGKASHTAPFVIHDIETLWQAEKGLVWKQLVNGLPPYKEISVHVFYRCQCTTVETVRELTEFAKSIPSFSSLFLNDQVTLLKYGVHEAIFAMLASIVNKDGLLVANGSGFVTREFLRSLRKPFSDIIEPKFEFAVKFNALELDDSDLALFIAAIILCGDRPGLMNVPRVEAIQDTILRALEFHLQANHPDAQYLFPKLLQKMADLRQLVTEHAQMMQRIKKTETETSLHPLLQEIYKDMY
Experimental: as §2

PPARγ = molecular target: T5, PPARγ (Homo sapiens, UniProt P37231); experiment: PathHunter NHRscan CHO cell-based functional protein interaction assay, PPARγ agonist; conditions: CHO cells, 10 concentrations up to 100 μM; positive control troglitazone; read-out: concentration with PPARγ agonist activity
T5 construct: host or cells: Chinese hamster ovary (CHO)
T5 sequence (P37231 1-505): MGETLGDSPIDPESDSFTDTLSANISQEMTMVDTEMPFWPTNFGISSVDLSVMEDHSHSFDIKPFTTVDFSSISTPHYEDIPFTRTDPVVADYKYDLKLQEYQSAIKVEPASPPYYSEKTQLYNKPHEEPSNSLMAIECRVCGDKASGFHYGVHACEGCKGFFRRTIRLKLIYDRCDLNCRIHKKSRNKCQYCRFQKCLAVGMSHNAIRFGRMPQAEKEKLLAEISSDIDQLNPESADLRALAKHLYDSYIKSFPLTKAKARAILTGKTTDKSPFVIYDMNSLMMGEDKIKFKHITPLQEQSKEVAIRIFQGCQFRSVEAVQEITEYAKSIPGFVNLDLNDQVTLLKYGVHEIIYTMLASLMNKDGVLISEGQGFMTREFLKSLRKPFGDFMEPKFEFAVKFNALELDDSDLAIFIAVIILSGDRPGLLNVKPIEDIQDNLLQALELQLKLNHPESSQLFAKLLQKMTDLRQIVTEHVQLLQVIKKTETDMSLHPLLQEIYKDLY
Experimental: as §2

[5] = 5 mg/kg daily oral gavage for 12 weeks
[6] = 5 mg/kg daily oral gavage for 12 weeks, *p < 0.05 compared to controls
[7] = after 4 months of daily oral 100 mg, 44 responders
[8] = 35 mg/kg daily oral gavage for 12 weeks

T1 sequence (P21554 whole entry): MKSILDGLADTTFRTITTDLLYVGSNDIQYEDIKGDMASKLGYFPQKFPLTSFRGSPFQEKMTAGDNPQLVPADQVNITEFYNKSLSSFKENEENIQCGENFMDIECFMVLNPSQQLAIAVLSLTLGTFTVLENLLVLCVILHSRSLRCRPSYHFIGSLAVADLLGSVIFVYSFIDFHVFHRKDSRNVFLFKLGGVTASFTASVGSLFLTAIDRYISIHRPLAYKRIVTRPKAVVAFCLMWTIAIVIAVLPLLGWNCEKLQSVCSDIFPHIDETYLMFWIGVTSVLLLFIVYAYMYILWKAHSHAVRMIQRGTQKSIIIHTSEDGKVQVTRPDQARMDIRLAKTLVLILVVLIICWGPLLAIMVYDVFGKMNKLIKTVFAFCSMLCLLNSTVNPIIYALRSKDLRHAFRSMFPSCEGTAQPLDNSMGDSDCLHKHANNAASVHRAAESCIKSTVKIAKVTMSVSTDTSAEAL
T2 sequence (P34972 whole entry): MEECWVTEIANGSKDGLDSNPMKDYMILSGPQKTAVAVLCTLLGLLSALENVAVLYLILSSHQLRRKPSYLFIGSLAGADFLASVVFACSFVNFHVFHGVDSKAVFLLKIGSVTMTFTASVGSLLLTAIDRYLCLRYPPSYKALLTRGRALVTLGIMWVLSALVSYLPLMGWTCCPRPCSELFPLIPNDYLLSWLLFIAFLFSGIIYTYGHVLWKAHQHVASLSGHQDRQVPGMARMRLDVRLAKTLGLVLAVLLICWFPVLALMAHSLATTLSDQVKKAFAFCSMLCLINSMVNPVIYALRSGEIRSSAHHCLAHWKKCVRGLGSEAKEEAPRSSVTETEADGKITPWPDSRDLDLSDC

Row | Compound | CB1 agonist activity [1] [%] | CB2 agonist activity [2] [%] | Body weight [3, 5] [g] | Body weight change (%) [3, 6] | percent body weight gain / weight-lowering effect compared to non-supplemented controls [3] | customers reporting healthier body weight [4, 7] [%] | customers reporting healthier eating, including less snacking [4, 7] [%] | customers reporting feeling less hungry between meals, snacking less, and/or eating less during meals ([4]; after 6 weeks of daily oral 100 mg, 114 responders) [%] | satiety reported by patients taking the dietary supplement ([4]; dietary supplement) | maximum PPARα agonist activity compared to positive control GW7647 (PPARα) [%] | EC50 (PPARα) [µM] | maximum PPARδ agonist activity compared to positive control L-165,041 (PPARδ) [%] | EC50 (PPARδ) [µM] | EC50 (PPARγ) [µM] | Body weight [3, 8] [g] | Body weight change (%) [3, 8] [%]
1 | CCCCCCCCCCCCCCC(=O)O [C15:0, pentadecanoic acid] | 24.5 | 18.2 | 41 ± 5 | 120 ± 6* % | weight-lowering effect was observed; also recorded: lower percent body weight gain | 21 | 33 | 46 | increased satiety | 65.8 | 11.5 | 52.8 | 2.7 | ≥ 100 | – | –
2 | CCCCCCCCCCCCCCCCC(=O)O [C17:0, heptadecanoic acid] | – | – | 43 ± 6 | 127 ± 9% | weight-lowering effect was not observed; also recorded: did not significantly decrease percent body weight | – | – | – | – | – | > 100 | 39.8 | 17.4 | ≥ 100 | 41 ± 7 | 122 ± 12
